Test results: patent EP4663639A1, “SALT AND CRYSTAL OF MNK INHIBITOR COMPOUND AND PREPARATION METHOD THEREFOR” (Novostar Pharmaceuticals, Ltd., priority 2023, dated 2024)
Values belong to the molecule of their own block, whether it stands above or below them.

Experiments:
Type in all cases: physicochemical
[1] = Storage stability of crystals at different temperatures, airtight (HPLC purity, XRPD crystal form)
Method: 10 mg polymorph I of compound 1 obtained in Comparative Example 1 and polymorph A of sulfate salt obtained in Example 1 were placed in an airtight environment and stored at 2~8 °C, 25 °C and 60 °C for 1 week and 2 weeks, respectively, and then samples were taken to examine the chemical purity of the samples by HPLC and the crystal morphology of the samples by XRPD. Table 11 Evaluation of storage properties of crystals at different temperatures

[2] = Temperature and humidity stability, open storage (HPLC purity, XRPD crystal form)
Method: The sulfate polymorph A obtained in Example 1 was placed openly under conditions of 25°C/92.5% RH, 25°C/60% RH and 40°C/75% RH to test the temperature and humidity stability. After the samples were stored for 1 week and 4 weeks, respectively, the purity of the samples was tested by HPLC, and the crystalline morphology of the samples was detected by XRPD.
The XRPD results of sulfate polymorph A after 1 and 4 weeks of storage at 25°C/92.5% RH, 25°C/60% RH and 40°C/75% RH are shown in Figures 14 and 15. Table 12 Stability assessment of sulfate polymorph A at different temperatures and humidities

[3] = Moisture adsorption-desorption by DVS; conditions: 25 °C
Method: The moisture adsorption-desorption properties of sulfate polymorph A obtained according to Example 1 were examined by DVS. 16 mg of sulfate polymorph A was placed in a metal container, which was placed in an Intrinsic DVS apparatus. A cyclic humidity gradient of 40-95-0-40% RH was set at 25 °C, and the samples were subjected to two successive adsorption-desorption cycles. At each stage, the following equilibrium criteria were used: mass change dm/dt < 0.002% over 5 min, with minimum and maximum equilibrium times of 60 min and 360 min, respectively, at each stage. Table 13 Dynamic water adsorption experiments for sulfate polymorph A

[4] = Solubility in buffers and water (HPLC of supernatant)
Method: Polymorph I of compound 1 obtained in Comparative Example 1, and sulfate polymorph A obtained in Example 1 were weighed in a sample vial, to which 1 mL of hydrochloric acid buffer solution at pH=1.2, acetate buffer solution at pH=4.5, phosphate buffer solution at pH=6.8, and water were added, respectively. The suspension was magnetically stirred at 25°C (1000 r/min).

[5] = 25°C/60%RH for four weeks, open
[6] = 25°C/92.5% RH for four weeks, open
[7] = 25°C/92.5% RH for one week, open
[8] = 40°C/75% RH for four weeks, open
[9] = acetate buffer solution pH 4.5, 25°C, 24 h
[10] = hydrochloric acid buffer solution pH 1.2, 25°C, 24 h
[11] = phosphate buffer solution pH 6.8, 25°C, 24 h

crystal structure (XRPD) after storage ([1]; 1 week and 2 weeks at 2~8 °C, 25 °C and 60 °C): did not undergo significant changes
Purity (%) ([1]; Initial): 97.5%
the amount of aromatic hydrocarbons (%) ([1]; Initial): 1.5%
Purity (%) ([1]; One week, 2~8 °C, airtight): 97.5%
the amount of aromatic hydrocarbons (%) ([1]; One week, 2~8 °C, airtight): 1.5%
Purity (%) ([1]; One week, 25 °C, airtight): 97.4%
the amount of aromatic hydrocarbons (%) ([1]; One week, 25 °C, airtight): 1.5%
Purity (%) ([1]; One week, 60 °C, airtight): 97.3%
the amount of aromatic hydrocarbons (%) ([1]; One week, 60 °C, airtight): 1.7%
Purity (%) ([1]; Two weeks, 2~8 °C, airtight): 97.5%
the amount of aromatic hydrocarbons (%) ([1]; Two weeks, 2~8 °C, airtight): 1.5%
Purity (%) ([1]; Two weeks, 25 °C, airtight): 97.5%
the amount of aromatic hydrocarbons (%) ([1]; Two weeks, 25 °C, airtight): 1.5%
Purity (%) ([1]; Two weeks, 60 °C, airtight): 97.1%
the amount of aromatic hydrocarbons (%) ([1]; Two weeks, 60 °C, airtight): 1.8%
Aromatic content (%) ([2]; 25°C/60% RH for one week, open): 1.0%
Purity (%) ([2]; 25°C/60% RH for one week, open): 98.1%
Aromatic content (%) [2, 5]: 1.0%
Purity (%) [2, 5]: 98.1%
Aromatic content (%) [2, 6]: 1.2%
Purity (%) [2, 6]: 97.8%
Aromatic content (%) [2, 7]: 1.0%
Purity (%) [2, 7]: 98.1%
Aromatic content (%) [2, 8]: 1.1%
Purity (%) [2, 8]: 97.9%
Aromatic content (%) ([2]; 40°C/75% RH for one week, open): 1.0%
Purity (%) ([2]; 40°C/75% RH for one week, open): 98.1%
Aromatic content (%) ([2]; Initial): 1.0%
Purity (%) ([2]; Initial): 98.1%
structural stability (purity and XRPD) on storage ([2]; different humidity and temperature conditions, 1 and 4 weeks): high structural stability
hygroscopicity ([3]; 0%RH-95%RH): slightly hygroscopic
moisture absorbed ([3]; range 0%RH-95%RH): 1.2%
1st Desorption Mass change (%) ([3]; Relative humidity 0 %): -0.574%
2nd Adsorption Mass change (%) ([3]; Relative humidity 0 %): -0.574%
1st Desorption Mass change (%) ([3]; Relative humidity 10 %): -0.344%
2nd Adsorption Mass change (%) ([3]; Relative humidity 10 %): -0.368%
1st Desorption Mass change (%) ([3]; Relative humidity 20 %): -0.210%
2nd Adsorption Mass change (%) ([3]; Relative humidity 20 %): -0.246%
1st Desorption Mass change (%) ([3]; Relative humidity 30 %): -0.084%
2nd Adsorption Mass change (%) ([3]; Relative humidity 30 %): -0.133%
1st Adsorption Mass change (%) ([3]; Relative humidity 40 %): 0.000%
1st Desorption Mass change (%) ([3]; Relative humidity 40 %): 0.081%
2nd Adsorption Mass change (%) ([3]; Relative humidity 40 %): -0.017%
1st Adsorption Mass change (%) ([3]; Relative humidity 50 %): 0.085%
1st Desorption Mass change (%) ([3]; Relative humidity 50 %): 0.178%
1st Adsorption Mass change (%) ([3]; Relative humidity 60 %): 0.174%
1st Desorption Mass change (%) ([3]; Relative humidity 60 %): 0.253%
1st Adsorption Mass change (%) ([3]; Relative humidity 70 %): 0.260%
1st Desorption Mass change (%) ([3]; Relative humidity 70 %): 0.327%
1st Adsorption Mass change (%) ([3]; Relative humidity 80 %): 0.357%
1st Desorption Mass change (%) ([3]; Relative humidity 80 %): 0.418%
1st Adsorption Mass change (%) ([3]; Relative humidity 90 %): 0.497%
1st Desorption Mass change (%) ([3]; Relative humidity 90 %): 0.589%
1st Adsorption Mass change (%) ([3]; Relative humidity 95 %): 0.604%
1st Desorption Mass change (%) ([3]; Relative humidity 95 %): 0.604%
solubility at 24 h ([4]; acetate buffer solution pH 4.5, 25°C): 58.6 µg/mL
pH of the solution after solvation saturation has been reached [4, 9]: 2.0
solubility at 24 h ([4]; hydrochloric acid buffer solution pH 1.2, 25°C): 22.5 µg/mL
pH of the solution after solvation saturation has been reached [4, 10]: 1.2
solubility at 24 h ([4]; phosphate buffer solution pH 6.8, 25°C): 21.6 µg/mL
pH of the solution after solvation saturation has been reached [4, 11]: 2.0
solubility at 24 h ([4]; water, 25°C): 64.7 µg/mL
pH of the solution after solvation saturation has been reached ([4]; water, 25°C, 24 h): 1.5
Molecule: Cc1c2c(c(=O)n3c1C(=O)NC31CCCCC1)Nc1cc(NC(=O)C3CC3)ncc1C2 [Sulfate polymorph A]

crystal structure (XRPD) after storage ([1]; 2 weeks at high temperature (60 °C)): the crystal structure changed
crystal structure (XRPD) after storage ([1]; 2 weeks at low temperature (2-8 °C) or room temperature (25 °C)): did not change significantly
Purity (%) ([1]; Initial): 97.4%
the amount of aromatic hydrocarbons (%) ([1]; Initial): 1.6%
Purity (%) ([1]; One week, 2~8 °C, airtight): 97.6%
the amount of aromatic hydrocarbons (%) ([1]; One week, 2~8 °C, airtight): 1.4%
Purity (%) ([1]; One week, 25 °C, airtight): 97.6%
the amount of aromatic hydrocarbons (%) ([1]; One week, 25 °C, airtight): 1.4%
Purity (%) ([1]; One week, 60 °C, airtight): 96.6%
the amount of aromatic hydrocarbons (%) ([1]; One week, 60 °C, airtight): 2.4%
Purity (%) ([1]; Two weeks, 2~8 °C, airtight): 97.5%
the amount of aromatic hydrocarbons (%) ([1]; Two weeks, 2~8 °C, airtight): 1.5%
Purity (%) ([1]; Two weeks, 25 °C, airtight): 97.4%
the amount of aromatic hydrocarbons (%) ([1]; Two weeks, 25 °C, airtight): 1.6%
Purity (%) ([1]; Two weeks, 60 °C, airtight): 96.3%
the amount of aromatic hydrocarbons (%) ([1]; Two weeks, 60 °C, airtight): 2.7%
Solubility (μg/mL) [4, 9]: Not detected
pH of the solution after solvation saturation has been reached [4, 9]: 3.5
Solubility [4, 10]: 18.7 µg/mL
pH of the solution after solvation saturation has been reached [4, 10]: 1.0
Solubility (μg/mL) [4, 11]: Not detected
pH of the solution after solvation saturation has been reached [4, 11]: 6.4
Solubility (μg/mL) ([4]; water, 25°C, 24 h): Not detected
pH of the solution after solvation saturation has been reached ([4]; water, 25°C, 24 h): 6.4
Molecule: N-(12'-methyl-1',5'-dioxo-1',5',6 ',11'-tetrahydro-2'H-spiro[cyclohexane-1,3'-imidazo[1,5':1,6]pyrido[3,4-b][ 1,6]naphthyridin]-8'-yl)cyclopropane carboxamide [polymorph I of Compound 1]
